Test results from patent EP4603105A1, “PHARMACEUTICAL COMPOSITION CONTAINING CYCLIC COMPOUND HAVING SELECTIVE KRAS INHIBITORY EFFECT AGAINST HRAS AND NRAS” (CHUGAI SEIYAKU KABUSHIKI KAISHA, priority 2022, dated 2024).
*1 amine or outer side, *2 acyl side, *3 side chain or, on linkers, in order; H or OH if unused. Where a SMILES comes first, the peptide text is derived from it. Bridges are numbered along the chain shown (N, C = ends). [ ]: non-standard residue; d: D form. The star is where a group is joined. hPhe(3,5-F2-4-CF3) = N[C@@H](CCc1cc(F)c(C(F)(F)F)c(F)c1)C(=O)O; hPhe(3-Cl-4-CF3) = N[C@@H](CCc1ccc(C(F)(F)F)c(Cl)c1)C(=O)O; NPrPhe(4-CF3) = CCCN[C@@H](Cc1ccc(C(F)(F)F)cc1)C(=O)O; NPrAsp = CCCN([C@@H](CC(=O)[*:3])C(=O)[*:2])[*:1]; X50 = C=CCN([C@@H](Cc1ccc(C)cc1)C(=O)[*:2])[*:1]; NMeGly(cPent) = CN[C@H](C(=O)O)C1CCCC1; X7 = C[C@@](N[*:1])(C(=O)[*:2])C1CC1; NMeAllylGly = C=CC[C@H](NC)C(=O)O; Hyp = O=C(O)[C@@H]1C[C@@H](O)CN1; NMeD = CN[C@@H](CC(=O)O)C(=O)O; NMeL = CN[C@@H](CC(C)C)C(=O)O; NMeNva = CCC[C@H](NC)C(=O)O; Morpholide = C1CN(*)CCO1; NMeA = CN[C@@H](C)C(=O)O; Ac5c = NC1(C(=O)O)CCCC1; Aze = O=C(O)[C@@H]1CCN1; Ac4c = NC1(C(=O)O)CCC1; Sar = CNCC(=O)O

How the values were obtained:
[1] = biological target: GDP-bound NRAS wild-type protein (Homo sapiens, UniProt P01111); experiment: Binding to NRAS by surface plasmon resonance (SPR), KD and KD ratio to KRAS
GDP-bound NRAS wild-type protein, sequence (P01111 whole entry): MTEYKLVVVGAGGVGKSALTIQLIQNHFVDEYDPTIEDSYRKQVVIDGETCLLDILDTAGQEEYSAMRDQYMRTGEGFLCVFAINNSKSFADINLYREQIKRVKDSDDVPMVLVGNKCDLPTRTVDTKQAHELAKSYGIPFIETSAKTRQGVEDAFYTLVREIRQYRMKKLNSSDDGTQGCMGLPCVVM
Method in brief: (§1)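 Compound binding is evaluated by SPR single-cycle kinetics, with concentrations added intermittently from low to high for 75 s each. Target surfaces carry GDP-loaded biotinylated Avi-RAS at about 100–300 RU, regenerated after each cycle; temperature 30°C. A 1:1 binding model gives KD.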

[2] = test system: human lung cancer strain NCI-H441; assay type: cell-based
Method in brief: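 Proliferation was scored by […] measured after the reagent was added to cultures kept at 37°C in 5% carbon dioxide.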

HRAS wild-type protein = HRAS wild-type protein (Homo sapiens, UniProt P01112); experiment: Binding to HRAS by surface plasmon resonance (SPR), KD and KD ratio to KRAS
HRAS wild-type protein, sequence (P01112 whole entry): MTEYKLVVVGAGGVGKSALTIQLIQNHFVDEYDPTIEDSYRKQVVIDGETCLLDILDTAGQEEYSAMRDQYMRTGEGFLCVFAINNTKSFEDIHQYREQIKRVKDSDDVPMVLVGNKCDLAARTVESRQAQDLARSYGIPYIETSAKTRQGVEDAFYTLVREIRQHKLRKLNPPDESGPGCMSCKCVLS
Method in brief: as §1

[3] = ratio of the KD value with respect to GDP-bound NRAS wild-type protein to the KD value with respect to KRAS
[4] = ratio of the KD value with respect to HRAS wild-type protein to the KD value with respect to KRAS
[5] = ratio of KD for GDP-bound NRAS wild-type protein to KD for KRAS
[6] = ratio of KD for HRAS wild-type protein to KD for KRAS

| Structure (SMILES) | NRAS /KRAS [1, 3] | IC50 [2] [µM] | HRAS /KRAS (HRAS wild-type protein; [4]) | NRAS /KRAS [1, 5] | HRAS /KRAS (HRAS wild-type protein; [6]) |
| --- | --- | --- | --- | --- | --- |
| CCO[C@@H]1C[C@H]2C(=O)NC3(CCC(F)(F)CC3)C(=O)N(C)[C@@H](C3CCCC3)C(=O)N(C)[C@H](C(=O)N(C)C)CC(=O)N(C)[C@@H](C)C(=O)N[C@@H]([C@@H](C)CC)C(=O)N(C)CC(=O)N(C)[C@H]3CCCCCN(C3=O)[C@@H](Cc3ccc(C(F)(F)F)cc3)C(=O)N(C)CC(=O)N[C@@H](CCc3cc(F)c(C(F)(F)F)c(F)c3)C(=O)N2C1 [PP0725] | B (a compound having 3 or more and less than 10 is denoted as B) | 0.194 | B (a compound having 3 or more and less than 10 is denoted as B) | – | – |
| CCO[C@@H]1C[C@H]2C(=O)NC3(CCC3)C(=O)N(C)[C@@H](C3CCCC3)C(=O)N(CCC3CCC3)[C@H](C(=O)N3CCOCC3)CC(=O)N(C)[C@@H](CC(C)C)C(=O)N[C@@H]([C@@H](C)CC)C(=O)N(C)CC(=O)N(C)[C@H]3CCCCN(C3=O)[C@@H](Cc3ccc(C(F)(F)F)cc3)C(=O)N(C)CC(=O)N[C@@H](CCc3cc(F)c(C(F)(F)F)c(F)c3)C(=O)N2C1 [PP0650] | C (A compound having a KD ratio of 0.1 or more and less than 3 is denoted as C) | 0.0457 | B (a compound having 3 or more and less than 10 is denoted as B) | – | – |
| CCO[C@@H]1C[C@H]2C(=O)NC3(CC(C)(C)C3)C(=O)N(C)[C@@H](C3CCCC3)C(=O)N(C)[C@H](C(=O)N(C)CC)CC(=O)N(C)[C@@H](C(C)C)C(=O)N[C@@H]([C@@H](C)CC)C(=O)N(C)CC(=O)N(C)[C@H]3C/C=C\CCN(C3=O)[C@@H](Cc3ccc(C(F)(F)F)cc3)C(=O)N(C)CC(=O)N[C@@H](CCc3cc(F)c(C(F)(F)F)c(F)c3)C(=O)N2C1 [PP2034] | A (a compound having 10 or more and less than 20 is denoted as A) | 0.0088 | A (a compound having 10 or more and less than 20 is denoted as A) | – | – |
| CCO[C@@H]1C[C@H]2C(=O)NC3(CCCC3)C(=O)N(C)[C@@H](C3CCCC3)C(=O)N(C)[C@H](C(=O)N(C)C)CC(=O)N(C)[C@@H](C)C(=O)N[C@@H]([C@@H](C)CC)C(=O)N(C)CC(=O)N(C)[C@H]3CCCCN(C3=O)[C@@H](Cc3ccc(C(F)(F)F)cc3)C(=O)N(C)CC(=O)N[C@@H](CCc3cc(F)c(C(F)(F)F)c(F)c3)C(=O)N2C1 [PP0586] | C (A compound having a KD ratio of 0.1 or more and less than 3 is denoted as C) | 0.0053 | B (a compound having 3 or more and less than 10 is denoted as B) | – | – |
| CCCN1C(=O)[C@@H]2CCN2C(=O)CN(C)C(=O)[C@H]([C@@H](C)CC)NC(=O)[C@H](CC(C)C)N(C)C(=O)C[C@@H](C(=O)N2CCOCC2)N(C)C(=O)[C@H](C2CCCC2)N(C)C(=O)[C@](C)(C2CC2)NC(=O)[C@@H]2CCCN2C(=O)[C@H](CCc2cc(F)c(C(F)(F)F)c(F)c2)NC(=O)CN(C)C(=O)[C@@H]1Cc1ccc(C(F)(F)F)cc1 [PP0791] ([NMeL]I[Sar][Aze][NPrPhe(4-CF3)][Sar][hPhe(3,5-F2-4-CF3)]P[X7][NMeGly(cPent)][NMeD]-Morpholide; lactam N-11) | – | 0.086 | – | C (A compound having a KD ratio of 0.1 or more and less than 3 is denoted as C) | B (a compound having 3 or more and less than 10 is denoted as B) |
| CCCN1C(=O)[C@@H]2CCN2C(=O)[C@H](C)N(C)C(=O)[C@H]([C@@H](C)CC)NC(=O)[C@H](CC(C)C)N(C)C(=O)C[C@@H](C(=O)N2CCOCC2)N(C)C(=O)[C@H](C2CCCC2)N(C)C(=O)C2(CCCC2)NC(=O)[C@@H]2C[C@@H](O)CN2C(=O)[C@H](CCc2ccc(C(F)(F)F)c(Cl)c2)NC(=O)CN(C)C(=O)[C@@H]1Cc1ccc(C(F)(F)F)cc1 [PP0239] ([NMeL]I[NMeA][Aze][NPrPhe(4-CF3)][Sar][hPhe(3-Cl-4-CF3)][Hyp][Ac5c][NMeGly(cPent)][NMeD]-Morpholide; lactam N-11) | – | 0.0062 | – | C (A compound having a KD ratio of 0.1 or more and less than 3 is denoted as C) | B (a compound having 3 or more and less than 10 is denoted as B) |
| CCCN1C(=O)CN(C)C(=O)CNC(=O)[C@H]([C@@H](C)CC)NC(=O)[C@H](CC(C)C)N(C)C(=O)C[C@@H](C(=O)N2CCOCC2)NC(=O)[C@H](C2CCCC2)N(C)C(=O)C2(CCCC2)NC(=O)[C@@H]2CCCN2C(=O)[C@H](CCc2ccc(C(F)(F)F)c(Cl)c2)NC(=O)CN(C)C(=O)[C@@H]1Cc1ccc(C(F)(F)F)cc1 [PP0325] ([NMeL]IG[Sar][NPrPhe(4-CF3)][Sar][hPhe(3-Cl-4-CF3)]P[Ac5c][NMeGly(cPent)]D-Morpholide; lactam N-11) | – | 0.163 | – | B (a compound having 3 or more and less than 10 is denoted as B) | B (a compound having 3 or more and less than 10 is denoted as B) |
| C=CC[C@H]1C(=O)N(CC=C)[C@@H](Cc2ccc(C)cc2)C(=O)N(C)CC(=O)N[C@@H](CCc2ccc(C(F)(F)F)c(Cl)c2)C(=O)N2CCC[C@H]2C(=O)NC2(CCCC2)C(=O)N(C)[C@@H](C2CCCC2)C(=O)N(C)[C@H](C(=O)N2CCOCC2)CC(=O)N(C)[C@@H](CC(C)C)C(=O)N[C@@H]([C@@H](C)CC)C(=O)N(C)CC(=O)N1C [PP0139] ([NMeL]I[Sar][NMeAllylGly][X50][Sar][hPhe(3-Cl-4-CF3)]P[Ac5c][NMeGly(cPent)][NMeD]-Morpholide; lactam N-11) | – | 1.5 | – | C (A compound having a KD ratio of 0.1 or more and less than 3 is denoted as C) | C (A compound having a KD ratio of 0.1 or more and less than 3 is denoted as C) |
| CCC[C@H]1C(=O)N[C@@H]([C@@H](C)CC)C(=O)N(C)CC(=O)N(C)CC(=O)N(CCC)[C@@H](Cc2ccc(C(F)(F)F)cc2)C(=O)N(C)CC(=O)N[C@@H](CCc2ccc(C(F)(F)F)c(Cl)c2)C(=O)N2CCC[C@H]2C(=O)NC2(CCC2)C(=O)N(C)[C@@H](C2CCCC2)C(=O)N(CCC)[C@H](C(=O)N2CCOCC2)CC(=O)N1C [PP1954] ([NMeNva]I[Sar][Sar][NPrPhe(4-CF3)][Sar][hPhe(3-Cl-4-CF3)]P[Ac4c][NMeGly(cPent)][NPrAsp]-Morpholide; lactam N-11) | B (a compound having 3 or more and less than 10 is denoted as B) | 0.0081 | B (a compound having 3 or more and less than 10 is denoted as B) | – | – |
| CCC[C@@H]1C[C@H]2C(=O)NC3(CC(C)(C)C3)C(=O)N(C)[C@@H](C3CCCC3)C(=O)N(C)[C@H](C(=O)N(C)C)CC(=O)N(C)[C@@H](COC)C(=O)N[C@@H]([C@@H](C)CC)C(=O)N(C)CC(=O)N(C)[C@H]3C/C=C\CCN(C3=O)[C@@H](Cc3ccc(C(F)(F)F)cc3)C(=O)N(C)CC(=O)N[C@@H](CCc3ccc(C(F)(F)F)c(Cl)c3)C(=O)N2C1 [PP2275] | A (a compound having 10 or more and less than 20 is denoted as A) | 0.0122 | A (a compound having 10 or more and less than 20 is denoted as A) | – | – |
